The target in one assay is Histone deacetylase 1 (Homo sapiens, UniProt Q13547). As to the kind of experiment: Inhibition of HDAC1 (unknown origin).
The target in assay [1] is T1, Lysine-specific histone demethylase 1A (Homo sapiens, UniProt O60341).
Description: Inhibition of LSD1 (unknown origin)
For assay [2], the target named is T1, Lysine-specific histone demethylase 1A. As to the kind of experiment: Inhibition of human recombinant LSD1 incubated for 60 mins by fluorescence based analysis.
Assay [3] deals with T2, Amine oxidase [flavin-containing] A (Homo sapiens, UniProt P21397).
T2 sequence (P21397 whole entry): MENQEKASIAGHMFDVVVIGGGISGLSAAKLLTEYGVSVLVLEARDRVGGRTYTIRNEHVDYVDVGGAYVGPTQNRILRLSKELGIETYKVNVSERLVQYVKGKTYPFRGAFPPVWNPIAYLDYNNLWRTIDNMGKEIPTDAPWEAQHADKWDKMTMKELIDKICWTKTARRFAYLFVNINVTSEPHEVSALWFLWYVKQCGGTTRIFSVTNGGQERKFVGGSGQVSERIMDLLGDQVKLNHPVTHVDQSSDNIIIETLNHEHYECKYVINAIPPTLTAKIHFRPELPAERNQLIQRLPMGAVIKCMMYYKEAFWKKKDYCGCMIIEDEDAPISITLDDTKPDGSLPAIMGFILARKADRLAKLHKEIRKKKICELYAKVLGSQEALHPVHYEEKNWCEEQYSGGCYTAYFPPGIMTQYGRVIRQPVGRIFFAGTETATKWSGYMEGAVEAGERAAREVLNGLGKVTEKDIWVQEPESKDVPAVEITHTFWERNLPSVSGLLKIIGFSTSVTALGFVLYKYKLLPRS
As to the kind of experiment: Inhibition of MAO-A (unknown origin) measured by MAO-GloTM method.

Another assay deals with NCI-H1975. As to the kind of experiment: cells. The following applies: Homo sapiens.
A further assay deals with Bel-7402. As to the kind of experiment: animal or person. The following applies: Mus musculus, Bel-7402, po, 504 h, read-out: TGI.
For another assay, the system named is A549. As to the kind of experiment: Antiproliferative activity against human A549 cells assessed as reduction in cell viability incubated for 72 hrs by MTT assay. Format: functional, cell-based. Particulars: A549, 72 h.
Another assay concerns MIA PaCa-2. As to the kind of experiment: Antiproliferative activity against human MIA PaCa-2 cells assessed as reduction in cell viability incubated for 72 hrs by MTT assay. Format: functional, cell-based. The following applies: MIA PaCa-2, 72 h.
The subject of a further assay is A2058. As to the kind of experiment: Antiproliferative activity against human A2058 cells assessed as reduction in cell viability incubated for 72 hrs by MTT assay. In kind it is functional, cell-based. Particulars: A2058, 72 h.
The next assay relates to HT-29. As to the kind of experiment: Antiproliferative activity against human HT-29 cells assessed as reduction in cell viability incubated for 72 hrs by MTT assay. Format: functional, cell-based. Particulars: HT-29, 72 h. Background: Tetrazolium assays rely on reduction of a dye to a coloured formazan, in cell work by metabolically active cells.

Structures are written as SMILES.

Chain of Histone deacetylase 1 (Q13547 whole entry): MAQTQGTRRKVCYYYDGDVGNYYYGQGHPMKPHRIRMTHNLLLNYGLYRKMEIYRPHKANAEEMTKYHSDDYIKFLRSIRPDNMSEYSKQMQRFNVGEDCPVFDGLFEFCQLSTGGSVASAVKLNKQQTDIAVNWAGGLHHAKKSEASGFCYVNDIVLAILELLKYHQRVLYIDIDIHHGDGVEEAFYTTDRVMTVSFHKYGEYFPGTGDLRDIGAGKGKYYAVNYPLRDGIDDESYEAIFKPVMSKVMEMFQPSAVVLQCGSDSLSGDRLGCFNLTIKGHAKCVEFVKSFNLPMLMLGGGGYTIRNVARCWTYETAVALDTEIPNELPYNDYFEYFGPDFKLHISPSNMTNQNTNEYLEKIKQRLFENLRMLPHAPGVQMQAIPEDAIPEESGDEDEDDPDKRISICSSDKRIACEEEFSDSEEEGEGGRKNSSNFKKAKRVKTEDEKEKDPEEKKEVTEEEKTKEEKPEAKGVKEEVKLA
Description for Bel-7402: Anticancer activity against human Bel-7402 cells xenografted in nude mouse model assessed as tumor growth inhibition at 60 mg/kg, IG administered for 21 days relative to control

With `NC1CC1c1ccc(NC(=O)CCC(=O)NCCCNCCCCNCCCNC(=O)c2ccc(NC(=O)CCCCCCC(=O)NO)cc2)cc1` (stereo unspecified), the results for the IC50 (against Histone deacetylase 1; in [1]) were 42.5 nM and 3850 nM, respectively.

Turning to `O=C(O)c1ccc(CN2CCC(CN[C@@H]3C[C@H]3c3ccccc3)CC2)cc1` [GSK2879552], the concentration for half-maximal inhibition (IC50) (usually the concentration that gives 50% inhibition) in assay [1] worked out at 1700 nM.

`COC1=CC(=O)OC(/C=C/c2ccccc2)C1` (stereo unspecified): the IC50 worked out at 3850 nM in assay [2] and 1.29 nM in assay [3].

For the molecule `C=CC(=O)Nc1cc(Nc2nccc(-c3cn(C)c4ccccc34)n2)c(OC)cc1N(C)CCN(C)C` [OSIMERTINIB], the IC50 with NCI-H1975 amounted to […].

`COc1ccc(S(=O)(=O)N(CCSC(=S)N2CCN(C)CC2)c2cc(OC)c(OC)c(OC)c2)cc1`: in the assay on Bel-7402, the inhibition in vivo at 60 mg/kg was found to be 43%.

Turning to `O=C(N/N=C/c1ccccc1O)c1cccc(Cl)c1`, the concentration for half-maximal inhibition (IC50) with A549 was 2400 nM; in the assay on MIA PaCa-2 it was 9500 nM; with A2058 it was 6500 nM; with HT-29 it was 950 nM.

These data come from ChEMBL document CHEMBL5505955, “Exploring the potential of histone demethylase inhibition in multi-therapeutic approaches for cancer treatment” (Eur J Med Chem, 2024).
